Counter-ions that a name gives are not always drawn.
Experiments:
SUV39H2 = SUV39H2 (Homo sapiens (Human), UniProt Q9H5I1); assay: biochemical; assay type: biochemical; conditions: 3H-SAM 100 nM, H3 Histone Peptide 350 nM, room temperature 3 hours
Experimental: Assay buffer (4 μL) was added into all the wells, including test compound and control wells (except for Sinefungin control wells), using the Multidrop Combi. The plate was centrifuged at 1000 rpm for 1 min. […] SUV39H2 (8 μL, final conc: optimized for each lot of the enzyme based on specific activity) was added by using the Multidrop Combi. The assay plate was centrifuged at 1000 rpm for 1 min. Assay buffer was used as background control, and incubated at room temperature for 3 hours. The reaction was stopped with 20 μL of 2.5 mg/mL Streptavidin SPA beads (final conc. 50 μg/well) in buffer using the Multidrop Combi and centrifuged for 1 min. The plate was loaded into the Trilux-Microbeta counter and a delayed read of 10 hours was made. The radioactive signal was measured at 1 min/well. Sinefungin and the internal standard compound were used as tool compounds to determine assay performance.
• The following calculations were made using the obtained CPM raw data: Software used: XLFit from IDBS.
For each test plate the following results were calculated: • Average, Standard Deviation, and % CV of Background Controls • Average, Standard Deviation, and % CV of Positive Controls • Z′ value of the plate • IC50 values of standard and test compounds (in nM) • R^2 value of fitted concentration response curve • Hill slope coefficient of fitted concentration response curve • Signal to Noise Ratio

A549 = assay: Cell-based assay, anti-proliferative activity (Cell Counting Kit-8, 72 hours); conditions: Homo sapiens; A549 cells, 72 hours exposure, Cell Counting Kit-8; read-out: A549 IC50
Procedure, shortened: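 Cells were seeded in 96-well plates and exposed to candidate inhibitors. Cellular growth was then determined with the colorimetric kit, and IC50 values were calculated from the growth data.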

SUV39H2, sequence (Q9H5I1 whole entry): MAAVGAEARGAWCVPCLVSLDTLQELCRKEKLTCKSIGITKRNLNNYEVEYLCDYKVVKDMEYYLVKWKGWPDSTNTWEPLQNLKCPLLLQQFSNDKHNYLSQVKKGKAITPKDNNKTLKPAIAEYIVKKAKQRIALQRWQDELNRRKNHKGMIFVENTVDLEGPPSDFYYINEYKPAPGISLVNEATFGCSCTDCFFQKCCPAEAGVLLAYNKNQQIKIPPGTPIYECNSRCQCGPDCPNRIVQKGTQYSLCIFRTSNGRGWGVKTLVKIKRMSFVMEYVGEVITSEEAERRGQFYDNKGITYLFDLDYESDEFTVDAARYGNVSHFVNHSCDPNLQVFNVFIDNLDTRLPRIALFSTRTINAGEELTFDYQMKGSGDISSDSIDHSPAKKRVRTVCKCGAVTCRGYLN

Row | SMILES | IC50 (SUV39H2) | IC50 (A549)
1 | COc1cc(OC)c(-c2cn3ccc(N4C[C@H](NCc5ccncc5)[C@@H](O)C4)cc3n2)cc1Cl (relative stereo) [Example 439, trans-1-(2-(5-chloro-2,4-dimethoxyphenyl)imidazo[1,2-a]pyridin-7-yl)-4-((pyridin-4-ylmethyl)amino)pyrrolidin-3-ol] | 0.00676 µM | 10 µM
2 | COc1cc(OC)c(-c2cn3ccc(N4CCN(C(C)=O)CC4)cc3n2)cc1Cl [Example 307, 1-(4-(2-(5-chloro-2,4-dimethoxyphenyl)imidazo[1,2-a]pyridin-7-yl)piperazin-1-yl)ethanone] | 0.002 µM | 2.2 µM
3 | COc1cc(OC)c(-c2cn3ccc(N4CCN(C(C)=O)CC4C)cc3n2)cc1Cl (stereo not drawn) [Example 308, 1-(4-(2-(5-chloro-2,4-dimethoxyphenyl)imidazo[1,2-a]pyridin-7-yl)-3-methylpiperazin-1-yl)ethanone] | 0.0035 µM | 8.6 µM
4 | COc1cc(OC)c(-c2cn3ccc(N4CCN(C(C)=O)C(C)C4)cc3n2)cc1Cl (stereo not drawn) [Example 309, 1-(4-(2-(5-chloro-2,4-dimethoxyphenyl)imidazo[1,2-a]pyridin-7-yl)-2-methylpiperazin-1-yl)ethanone] | 0.00197 µM | 2.1 µM
5 | COCC(=O)N1CCN(c2ccn3cc(-c4cc(Cl)c(OC)cc4OC)nc3c2)CC1C (stereo not drawn) [Example 310, 1-(4-(2-(5-chloro-2,4-dimethoxyphenyl)imidazo[1,2-a]pyridin-7-yl)-2-methylpiperazin-1-yl)-2-methoxyethanone] | 0.00178 µM | 10 µM
6 | COc1cc(OC)c(-c2cn3ccc(N4CCN(S(C)(=O)=O)CC4C)cc3n2)cc1Cl (stereo not drawn) [Example 311, 2-(5-chloro-2,4-dimethoxyphenyl)-7-(2-methyl-4-(methylsulfonyl)piperazin-1-yl)imidazo[1,2-a]pyridine] | 0.00494 µM | 3.8 µM
7 | COc1cc(OC)c(-c2cn3ccc(N4CCN(S(C)(=O)=O)C(C)C4)cc3n2)cc1Cl (stereo not drawn) [Example 312, 2-(5-chloro-2,4-dimethoxyphenyl)-7-(3-methyl-4-(methylsulfonyl)piperazin-1-yl)imidazo[1,2-a]pyridine] | 0.00381 µM | 2.5 µM
8 | COc1cc(OC)c(-c2cn3ccc(N4CCN(C(=O)c5ccccc5O)CC4)cc3n2)cc1Cl [Example 314, (4-(2-(5-chloro-2,4-dimethoxyphenyl)imidazo[1,2-a]pyridin-7-yl)piperazin-1-yl)(2-hydroxyphenyl)methanone] | 0.00729 µM | 1.7 µM
9 | COc1cc(OC)c(-c2cn3ccc(N4CCN(C(=O)CCCCNC(=O)OC(C)(C)C)CC4)cc3n2)cc1Cl [Example 315, tert-butyl (5-(4-(2-(5-chloro-2,4-dimethoxyphenyl)imidazo[1,2-a]pyridin-7-yl)piperazin-1-yl)-5-oxopentyl)carbamate] | 0.0105 µM | 4.4 µM
10 | COc1cc(OC)c(-c2cn3ccc(N[C@H]4CC[C@H](CN5CCN(c6ncccn6)CC5)CC4)cc3n2)cc1Cl [Example 316, 2-(5-chloro-2,4-dimethoxyphenyl)-N-((trans)-4-((4-(pyrimidin-2-yl)piperazin-1-yl)methyl)cyclohexyl)imidazo[1,2-a]pyridin-7-amine] | 0.077 µM | 0.7 µM
11 | COc1cc(OC)c(-c2cn3ccc(N4CCN(c5cncnc5)CC4)cc3n2)cc1Cl [Example 317, 2-(5-chloro-2,4-dimethoxyphenyl)-7-(4-(pyrimidin-5-yl)piperazin-1-yl)imidazo[1,2-a]pyridine] | 0.0116 µM | 0.65 µM
12 | COc1cc(OC)c(-c2cn3ccc(N[C@H]4CC[C@H](Nc5ncccn5)CC4)cc3n2)cc1Cl [Example 318, (1r,4r)-N^1-(2-(5-chloro-2,4-dimethoxyphenyl)imidazo[1,2-a]pyridin-7-yl)-N^4-(pyrimidin-2-yl)cyclohexane-1,4-diamine hydrochloride] | 0.00973 µM | 0.18 µM
13 | COc1cc(OC)c(-c2cn3ccc(N4CCN(C(=O)c5ccncc5)CC4)cc3n2)cc1Cl [Example 319, (4-(2-(5-chloro-2,4-dimethoxyphenyl)imidazo[1,2-a]pyridin-7-yl)piperazin-1-yl)(pyridin-4-yl)methanone] | 0.0164 µM | 4.6 µM
14 | COc1cc(OC)c(-c2cn3ccc(NC4CCC(NCc5ccc(F)cc5)CC4)cc3n2)cc1Cl (stereo not drawn) [Example 320, (1r,4r)-N^1-(2-(5-chloro-2,4-dimethoxyphenyl)imidazo[1,2-a]pyridin-7-yl)-N^4-(4-fluorobenzyl)cyclohexane-1,4-diamine] | 0.095 µM | 0.43 µM
15 | COc1ccc(N2CCN(c3ccn4cc(-c5cc(Cl)c(OC)cc5OC)nc4c3)CC2)nc1 [Example 321, 2-(5-chloro-2,4-dimethoxyphenyl)-7-(4-(5-methoxypyridin-2-yl)piperazin-1-yl)imidazo[1,2-a]pyridine] | 0.0874 µM | 0.87 µM
16 | COc1cc(OC)c(-c2cn3ccc(N4CCN(c5ccncc5F)CC4)cc3n2)cc1Cl [Example 322, 2-(5-chloro-2,4-dimethoxyphenyl)-7-(4-(3-fluoropyridin-4-yl)piperazin-1-yl)imidazo[1,2-a]pyridine] | 0.0575 µM | 0.56 µM
17 | COc1cc(OC)c(-c2cn3ccc(N4CCN(c5ccc(N)nc5)CC4)cc3n2)cc1Cl [Example 323, 5-(4-(2-(5-chloro-2,4-dimethoxyphenyl)imidazo[1,2-a]pyridin-7-yl)piperazin-1-yl)pyridin-2-amine] | 0.0304 µM | 0.93 µM
18 | COc1cc(OC)c(-c2cn3ccc(NC4CCN(Cc5csc([N+](=O)[O-])c5)CC4)cc3n2)cc1Cl [Example 324, 2-(5-chloro-2,4-dimethoxyphenyl)-N-(1-((5-nitrothiophen-3-yl)methyl)piperidin-4-yl)imidazo[1,2-a]pyridin-7-amine] | 0.0339 µM | 0.59 µM
19 | COc1cc(OC)c(-c2cn3ccc(N4CCN(c5ccnc(NCCO)n5)CC4)cc3n2)cc1Cl [Example 334, 2-((4-(4-(2-(5-chloro-2,4-dimethoxyphenyl)imidazo[1,2-a]pyridin-7-yl)piperazin-1-yl)pyrimidin-2-yl)amino)ethanol] | 0.0213 µM | 
20 | COc1cc(OC)c(-c2cn3ccc(N4CCN(Cc5cncc(C#N)c5)CC4)cc3n2)cc1Cl [Example 339, 5-((4-(2-(5-chloro-2,4-dimethoxyphenyl)imidazo[1,2-a]pyridin-7-yl)piperazin-1-yl)methyl)nicotinonitrile] | 0.0357 µM | 
21 | COc1cc(OC)c(-c2cn3ccc(N[C@H]4CC[C@@H](N(C)Cc5ccc(F)cc5)CC4)cc3n2)cc1Cl [Example 342] | 0.0388 µM | 
22 | COc1cc(OC)c(-c2cn3ccc(N[C@H]4CC[C@@H](N(C)Cc5ccccc5F)CC4)cc3n2)cc1Cl [Example 347, bis(2,2,2-trifluoroacetate)] | 0.0248 µM | 
23 | COc1cc(OC)c(-c2cn3ccc(N4CCN(c5cnc(N6CCC(NS(=O)(=O)C7CC7)CC6)nc5)CC4)cc3n2)cc1Cl [Example 393, N-(1-(5-(4-(2-(5-chloro-2,4-dimethoxyphenyl)imidazo[1,2-a]pyridin-7-yl)piperazin-1-yl)pyrimidin-2-yl)piperidin-4-yl)cyclopropanesulfonamide] | 0.0283 µM | 
24 | COc1cc(OC)c(-c2cn3ccc(N[C@H]4C[C@H]5CC[C@@H](C4)N5CC4CCCCC4)cc3n2)cc1Cl [Example 434, 2-(5-chloro-2,4-dimethoxyphenyl)-N-((1R,3r,5S)-8-(cyclohexylmethyl)-8-azabicyclo[3.2.1]octan-3-yl)imidazo[1,2-a]pyridin-7-amine] | 0.0887 µM | 
